Test results: patent US20230382858A1 (Beckley Psytech Limited, priority 2020, published 2023)

Columns and labels:
[1] = Dynamic Vapour Sorption (DVS); type: physicochemical
Description: Sorption isotherms were obtained using a Hiden Isochema moisture sorption analyser (IGAsorp Systems Firmware V20.19.005 COM3) and operated by Isochema Hlsorp 2019 V4.02.0102. The sample was maintained at a constant temperature (25° C.) by the instrument controls. The humidity was controlled by mixing streams of dry and wet nitrogen, with a total flow of 250 ml.min-1. The weight change of the sample was monitored as a function of humidity by a microbalance (accuracy +/− 0.001 mg).
A defined amount of sample was placed in a tared mesh stainless steel basket under ambient conditions. A typical experimental run consisted of three cycles (desorption, sorption, desorption, sorption, desorption and sorption) at a constant temperature (25° C.) and 10% RH intervals over a 0-90% RH range (60 minutes for each humidity level).
This is to obtain in-depth profiling of the material towards humidity at these elevated levels.

[2] = tested on: Sprague-Dawley rats; experiment: Maximum tolerated dose followed by 7-day repeat-dose toxicology in rats (Study 700040); type: in vivo; conditions: rat
Description: The study consisted of 2 parts. […] The doses used in part 1 were 15, 30, 50, 65, and 75 mg/kg. Each subsequent dose was administered following at least 24 hours from the commencement of the previous dose. There were 2 males and 2 females in each dose group.
During Phase I, assessments of mortality, clinical signs and body weights were performed. […] The necropsy consisted of an external examination, including reference to all clinically-recorded lesions, as well as a detailed internal examination.
During Phase 2, assessments of mortality, clinical signs and body weights were performed. Following dosing, all animals were euthanized and subjected to a necropsy examination on Day 8. The necropsy consisted of an external examination, including reference to all clinically-recorded lesions, as well as a detailed internal examination. Study plan specific tissues/organs were collected and retained, then trimmed and preserved promptly once the animal was euthanized but these were not further examined microscopically.

[3] = tested on: Salmonella typhimurium tester strains TA98, TA100, TA1535, and TA1537; experiment: Bacterial Reverse Mutation Test (Ames test), S. typhimurium; conditions: for cytotoxicity: 5000 μg/plate
[4] = tested on: Chinese hamster ovary (CHO)-K1 cells; experiment: In vitro micronucleus test (flow cytometry); type: cell-based
Text: The treatment with the vehicle/negative and positive controls was concurrently performed.

[5] = target: hERG (Homo sapiens, UniProt Q12809); experiment: in vitro
Text: This assay is employed as a screen to assess potential risks for QT interval prolongation.

[6] = intranasal 75 mg/kg for 7 consecutive days

Sequence of hERG (Q12809 whole entry): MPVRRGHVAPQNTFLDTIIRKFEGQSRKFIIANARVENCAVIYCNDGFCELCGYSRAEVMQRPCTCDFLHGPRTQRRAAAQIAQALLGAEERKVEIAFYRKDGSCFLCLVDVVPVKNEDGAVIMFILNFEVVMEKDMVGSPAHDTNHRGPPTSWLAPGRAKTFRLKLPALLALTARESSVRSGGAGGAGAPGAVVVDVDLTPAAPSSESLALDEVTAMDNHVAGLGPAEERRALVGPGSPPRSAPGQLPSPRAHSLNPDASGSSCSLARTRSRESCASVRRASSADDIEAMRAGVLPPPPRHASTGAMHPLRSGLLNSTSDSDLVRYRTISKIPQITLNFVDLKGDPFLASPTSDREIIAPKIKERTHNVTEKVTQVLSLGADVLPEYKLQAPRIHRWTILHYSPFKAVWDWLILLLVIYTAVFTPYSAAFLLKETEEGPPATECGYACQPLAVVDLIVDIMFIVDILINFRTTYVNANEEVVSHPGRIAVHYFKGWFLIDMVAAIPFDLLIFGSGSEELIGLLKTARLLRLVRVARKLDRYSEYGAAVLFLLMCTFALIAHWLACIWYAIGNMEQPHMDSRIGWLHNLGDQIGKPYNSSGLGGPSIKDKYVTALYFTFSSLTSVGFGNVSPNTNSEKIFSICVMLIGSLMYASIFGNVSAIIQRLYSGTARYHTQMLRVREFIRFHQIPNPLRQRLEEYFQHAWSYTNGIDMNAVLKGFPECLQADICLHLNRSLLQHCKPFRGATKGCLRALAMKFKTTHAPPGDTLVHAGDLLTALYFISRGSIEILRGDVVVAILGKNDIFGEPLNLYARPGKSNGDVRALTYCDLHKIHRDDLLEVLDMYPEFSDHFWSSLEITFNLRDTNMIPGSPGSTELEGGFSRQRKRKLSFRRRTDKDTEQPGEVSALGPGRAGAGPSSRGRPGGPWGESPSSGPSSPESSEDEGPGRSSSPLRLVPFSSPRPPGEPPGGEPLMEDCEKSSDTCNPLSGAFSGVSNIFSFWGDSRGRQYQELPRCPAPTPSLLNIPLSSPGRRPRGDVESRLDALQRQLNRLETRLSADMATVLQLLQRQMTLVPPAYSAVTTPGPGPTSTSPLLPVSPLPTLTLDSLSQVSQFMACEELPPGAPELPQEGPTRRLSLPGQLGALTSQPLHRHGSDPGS

With `COc1ccc2[nH]cc(CCN(C)C)c2c1.Cl` [5MeODMT Hydrochloride, lot 20/20/126-FP, 5MeODMT Hydrochloride] the “state of material upon completion of the DVS cycle” value ([1]; 0-90% RH cycles) was “completed deliquesced”, the moisture uptake ([1]; 25° C., 0-70% RH) was “less than 0.3 % w/w” and the moisture uptake ([1]; 25° C., first sorption cycle, 70-80% RH) was “Approximately 23 w/w”. For the same molecule, the “mass above the minimum recorded at 0% RH after subsequent cycles (retention of moisture)” value ([1]; 25° C., subsequent sorption and desorption cycles) was 6-9 % w/w and the further moisture uptake ([1]; 25° C., up to and when held at 90% RH) was 20 % w/w.

With `COc1ccc2[nH]cc(CCN(C)C)c2c1.Cl` [5MeODMT Hydrochloride, lot 20/45/006-FP, 5MeODMT Hydrochloride] the moisture increase ([1]; 70-75% RH) was “ca. 0.46 % w/w”, the further moisture uptake ([1]; 75-80% RH) was “ca. 7%” and the further moisture uptake ([1]; 80-85%) was “ca. 40%”. For the same molecule, the stability towards humidity ([1]; DVS) was “robustness between 0-75% RH” and the “state of solids post DVS analysis” value ([1]; modified DVS up to 85% RH, likely occurred above 80% RH) was “Complete deliquescence”.

In the case of `COc1ccc2[nH]cc(CCN(C)C)c2c1` [5MeODMT, 5-methoxy-N,N-dimethyltryptamine], the body weight gain [2, 6] is reported as “slightly suppressed for both sexes”, the “macroscopic observation: dark/pale area of the lungs” value [2, 6] is reported as 2/10 and the mortality [2, 6] is reported as “no mortalities”. For the same molecule, the tolerability [2, 6] was “tolerated”, the clinical signs ([2]; single intranasal 15-75 mg/kg) was “incoordination, shallow or increased respiration, sneezing, salivation, decreased activity, piloerection, white pasty material around penis (for males), ptosis, laying on the cage floor, and sensitive to touch and shaking” and the “mortality and gross pathology” value ([2]; single intranasal 15-75 mg/kg) was “no mortality and gross pathology findings at any dose”. For the same molecule, the “time to resolution of most clinical signs post dose” value ([2]; single intranasal 15-75 mg/kg) was ≤ 1 h, the tolerability ([2]; single intranasal, dose levels up to 75 mg/kg) was “tolerated” and the body weight gain ([2]; single intranasal, females at 75 mg/kg) was “slightly suppressed”. The cytotoxicity ([3]; absence of S9 mix) was “higher levels of cytotoxicity”, the cytotoxicity ([3]; presence of S9 mix) was “remained slight” and the “revertant colonies in repeated test” value ([3]; TA1537 and TA98, absence of S9 mix, 15-2000 μg per plate) was “no increases in the revertant colonies number per plate”. The “mutagenic potential (conclusion)” value ([3]; all bacteria strains tested, absence or presence of S9) was “no mutagenic potential”, the “chromosome-damaging potential (conclusion)” value ([4]; CHO-K1 cells) was “no chromosome-damaging potential” and the cytotoxicity or precipitation ([4]; up to 300 μg/mL, all treatment periods) was “No cytotoxicity or precipitation”. It also gave an inhibition at 30 µM [5] of 77.8 ± 7.4%.
